The record followed here is publication PMC9386376, “Discovery of spirooxindole-derived small-molecule compounds as novel HDAC/MDM2 dual inhibitors and investigation of their anticancer activity” (Frontiers in Oncology, 2022).

Read-outs that look alike come from different tables or passages of the source.

In one data set the target is T1, GST-tagged MDM2 (Homo sapiens, UniProt Q00987).
T1 construct: purchased Cisbio Co. Ltd
Nature of the data set: HTRF enzyme inhibition assay, MDM2. In kind it is biochemical. The conditions noted are these: compound at 1 μM. As to the method:
The enzymatic assay of test compounds is using the HTRF-based method provided by Cisbio Co. Ltd. In brief, the target compounds to be tested were prepared into samples with a concentration of 1 μM, which was added to GST-tagged MDM2 and HDAC1 proteins, respectively, then biotinylated substrate p53 peptide and HTRF detection reagents were added. The data obtained were processed by the ratio method, and the inhibition rates of MDM2 and HDAC1 were calculated. The detailed experimental procedures are according to the manufacturer’s protocols.
(In general: In TR-FRET formats the signal depends on donor and acceptor labels being close together.)

The target in the next data set is HDAC1 (Homo sapiens, UniProt Q13547). Nature of the data set: HTRF enzyme inhibition assay, HDAC1. Conditions: for inhibition at 1 µM: read-out: % enzyme inhibition HDAC; for % enzyme inhibition HDAC: compound at 1 μM, HTRF, method names HDAC1 protein.
In the next data set the test system is A431 cells. Nature of the data set: MTT antiproliferative assay, A431. In general terms: Tetrazolium dyes change colour on reduction, which living cells bring about.
The next data set deals with HCT116 cells. Nature of the data set: MTT antiproliferative assay, HCT116.
A further data set relates to MCF-7 cells. Nature of the data set: MTT antiproliferative assay, MCF-7.
[1] abbreviates: Homo sapiens, A-431, read-out: IC50 A431.
[2] abbreviates: Homo sapiens, HCT-116, read-out: IC50 HCT116.
Where [3] appears, read: Homo sapiens, MCF7, read-out: IC50 MCF-7.
Setting [4] is: read-out: IC50 A431, MTT, A431 human epidermal carcinoma, mean ± standard of at least three replicates.
The mark [5] stands for this setting: read-out: IC50 HCT116, MTT, HCT116 human colorectal cancer, mean ± standard of at least three replicates.
Setting [6] is: read-out: IC50 MCF-7, MTT, MCF-7 human breast cancer, mean ± standard of at least three replicates.

HDAC1, sequence (Q13547 whole entry): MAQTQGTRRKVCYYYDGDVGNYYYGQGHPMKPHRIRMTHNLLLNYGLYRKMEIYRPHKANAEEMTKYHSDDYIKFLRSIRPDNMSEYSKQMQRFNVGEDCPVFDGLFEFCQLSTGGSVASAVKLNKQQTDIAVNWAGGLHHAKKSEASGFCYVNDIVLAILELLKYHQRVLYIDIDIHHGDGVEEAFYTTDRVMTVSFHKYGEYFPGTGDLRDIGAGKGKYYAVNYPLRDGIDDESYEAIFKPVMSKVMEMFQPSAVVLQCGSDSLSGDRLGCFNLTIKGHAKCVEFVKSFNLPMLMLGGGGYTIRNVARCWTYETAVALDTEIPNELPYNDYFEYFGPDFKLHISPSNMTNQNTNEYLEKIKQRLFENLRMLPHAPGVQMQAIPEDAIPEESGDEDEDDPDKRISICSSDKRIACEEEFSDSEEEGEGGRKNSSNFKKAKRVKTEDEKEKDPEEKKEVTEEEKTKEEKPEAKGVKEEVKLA
T1 sequence (Q00987 whole entry): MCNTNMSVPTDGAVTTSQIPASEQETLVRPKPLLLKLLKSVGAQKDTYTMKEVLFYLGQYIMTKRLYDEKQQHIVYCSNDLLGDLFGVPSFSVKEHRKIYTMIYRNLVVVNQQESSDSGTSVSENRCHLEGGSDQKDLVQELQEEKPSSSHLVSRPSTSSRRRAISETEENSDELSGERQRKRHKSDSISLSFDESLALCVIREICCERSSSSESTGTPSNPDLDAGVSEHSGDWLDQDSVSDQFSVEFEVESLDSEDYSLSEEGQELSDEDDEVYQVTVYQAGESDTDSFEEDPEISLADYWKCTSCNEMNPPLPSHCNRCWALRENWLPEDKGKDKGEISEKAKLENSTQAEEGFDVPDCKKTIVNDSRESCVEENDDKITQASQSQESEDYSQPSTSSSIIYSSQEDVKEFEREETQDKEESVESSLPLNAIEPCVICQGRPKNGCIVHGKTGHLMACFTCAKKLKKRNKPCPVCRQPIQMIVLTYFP
Description for A431 cells: (§1) The cytotoxicity assay was performed with MTT method as previously described ([73], [88], [89]).
Description for HCT116 cells: as §1
Description for MCF-7 cells: as §1

Consider `O=C(CCCCC(=O)Nc1ccc([C@@H]2[C@H]3CSCN3[C@]3(C(=O)Nc4cc(Cl)ccc43)[C@H]2C(=O)c2ccccc2)cc1)NO` [7r, N^1-(4-((3R,6'S,7'R,7a'S)-6'-benzoyl-6-chloro-2-oxo-1',6',7',7a'-tetrahydro-3'H-spiro[indoline-3,5'-pyrrolo[1,2-c]thiazol]-7'-yl)phenyl)-N^6-hydroxyadipamide], for which the melting point lay in the range of 160.6 to 161.9 °C. Further, the inhibition at 1 µM on GST-tagged MDM2 came to 61%. Besides, the inhibition at 1 µM at HDAC1 came out at 55%.
Take `O=C(CCCCCCCCC(=O)Nc1ccc([C@@H]2[C@H]3CSCN3[C@]3(C(=O)Nc4cc(Cl)ccc43)[C@H]2C(=O)c2ccccc2)cc1)NO` [7s, N^1-(4-((3R,6'S,7'R,7a'S)-6'-benzoyl-6-chloro-2-oxo-1',6',7',7a'-tetrahydro-3'H-spiro[indoline-3,5'-pyrrolo[1,2-c]thiazol]-7'-yl)phenyl)-N^10-hydroxydecanediamide]: the melting point fell in the range of 137.7 to 139 °C. At GST-tagged MDM2, this molecule showed an inhibition at 1 µM of 59%. The inhibition at 1 µM on HDAC1 worked out at 68%.
As for `O=C(CCCCCCC(=O)Nc1ccc([C@@H]2[C@H]3CCCN3[C@]3(C(=O)Nc4cc(Cl)ccc43)[C@H]2C(=O)c2ccccc2)cc1)NO` [7t, N^1-(4-((1'R,2'S,3R,7a'R)-2'-benzoyl-6-chloro-2-oxo-1',2',5',6',7',7a'-hexahydrospiro[indoline-3,3'-pyrrolizin]-1'-yl)phenyl)-N^8-hydroxyoctanediamide], the melting point fell in the range of 143.4 to 144.5 °C. At GST-tagged MDM2, 1 µM produced 61% inhibition. Also, the inhibition at 1 µM at HDAC1 stood at 61%.
For `O=C(COCC(=O)Nc1ccc([C@@H]2[C@H]3CSCN3[C@]3(C(=O)Nc4cc(Cl)ccc43)[C@H]2C(=O)c2ccccc2)cc1)NO` [7u, N-(4-((3R,6'S,7'R,7a'S)-6'-benzoyl-6-chloro-2-oxo-1',6',7',7a'-tetrahydro-3'H-spiro[indoline-3,5'-pyrrolo[1,2-c]thiazol]-7'-yl)phenyl)-2-(2-(hydroxyamino)-2-oxoethoxy)acetamide], the melting point was in the range of 167.1 to 168.5 °C. Further, the IC50 in the data set on A431 cells (setting [1]) is 3.64 ± 0.56 µM. For the same molecule, the IC50 in the data set on HCT116 cells (setting [2]) is 4.59 ± 0.91 µM. The molecule further returned an inhibition at 1 µM against GST-tagged MDM2 of 61%. At HDAC1, the inhibition at 1 µM came out at 54%. Also, in the data set on MCF-7 cells (setting [3]), the IC50 is 3.47 ± 0.92 µM.
`O=C(CCCCC(=O)Nc1ccc(C(=O)Nc2ccc([C@@H]3[C@H]4CSCN4[C@]4(C(=O)Nc5cc(Cl)ccc54)[C@H]3C(=O)c3ccccc3)cc2)cc1)NO` [7v, N^1-(4-((4-((3R,6'S,7'R,7a'S)-6'-benzoyl-6-chloro-2-oxo-1',6',7',7a'-tetrahydro-3'H-spiro[indoline-3,5'-pyrrolo[1,2-c]thiazol]-7'-yl)phenyl)carbamoyl)phenyl)-N^6-hydroxyadipamide] returned a melting point of 175.5 to 176.6 °C. On GST-tagged MDM2, this molecule returned an inhibition at 1 µM of 58%. Besides, on HDAC1, the inhibition at 1 µM was determined as 53%.
The corresponding values for `Nc1ccccc1NC(=O)CCC(=O)Nc1ccc([C@@H]2[C@H]3CSCN3[C@]3(C(=O)Nc4ccccc43)[C@H]2C(=O)c2ccccc2)cc1` [9a, N^1-(2-aminophenyl)-N^4-(4-((3R,6'S,7'R,7a'S)-6'-benzoyl-2-oxo-1',6',7',7a'-tetrahydro-3'H-spiro[indoline-3,5'-pyrrolo[1,2-c]thiazol]-7'-yl)phenyl)succinamide] are 149.1 to 150.2 °C, 50% and 37%.
The molecule `Nc1ccccc1NC(=O)CCCCCCC(=O)Nc1ccc([C@@H]2[C@H]3CSCN3[C@]3(C(=O)Nc4ccccc43)[C@H]2C(=O)c2ccccc2)cc1` [9b, N^1-(2-aminophenyl)-N^8-(4-((3R,6'S,7'R,7a'S)-6'-benzoyl-2-oxo-1',6',7',7a'-tetrahydro-3'H-spiro[indoline-3,5'-pyrrolo[1,2-c]thiazol]-7'-yl)phenyl)octanediamide] yielded a melting point of 131.7 to 132.9 °C. This molecule showed an inhibition at 1 µM against GST-tagged MDM2 of 45%. Further, at HDAC1, the inhibition at 1 µM stood at 45%.
`Nc1ccccc1NC(=O)CCCCC(=O)Nc1ccc([C@@H]2[C@H]3CSCN3[C@]3(C(=O)Nc4cc(Cl)ccc43)[C@H]2C(=O)c2ccccc2)cc1` [9c, N^1-(2-aminophenyl)-N^6-(4-((3R,6'S,7'R,7a'S)-6'-benzoyl-6-chloro-2-oxo-1',6',7',7a'-tetrahydro-3'H-spiro[indoline-3,5'-pyrrolo[1,2-c]thiazol]-7'-yl)phenyl)adipamide]: the melting point is 148.9 to 150 °C. On GST-tagged MDM2, this molecule returned an inhibition at 1 µM of 57%. Moreover, the inhibition at 1 µM on HDAC1 came to 40%.
Regarding `Nc1ccccc1NC(=O)CCCCCCC(=O)Nc1ccc([C@@H]2[C@H]3CSCN3[C@]3(C(=O)Nc4cc(Cl)ccc43)[C@H]2C(=O)c2ccccc2)cc1` [9d, N^1-(2-aminophenyl)-N^8-(4-((3R,6'S,7'R,7a'S)-6'-benzoyl-6-chloro-2-oxo-1',6',7',7a'-tetrahydro-3'H-spiro[indoline-3,5'-pyrrolo[1,2-c]thiazol]-7'-yl)phenyl)octanediamide], the melting point fell in the range of 145.2 to 146.4 °C. In addition, at 1 µM the inhibition at GST-tagged MDM2 was 56%. Also, the inhibition at 1 µM on HDAC1 worked out at 55%.
As for `Nc1ccccc1NC(=O)CCCCCCCCC(=O)Nc1ccc([C@@H]2[C@H]3CSCN3[C@]3(C(=O)Nc4cc(Cl)ccc43)[C@H]2C(=O)c2ccccc2)cc1` [9e, N^1-(2-aminophenyl)-N^10-(4-((3R,6'S,7'R,7a'S)-6'-benzoyl-6-chloro-2-oxo-1',6',7',7a'-tetrahydro-3'H-spiro[indoline-3,5'-pyrrolo[1,2-c]thiazol]-7'-yl)phenyl)decanediamide], the melting point lay within 132.4 to 133.9 °C. In addition, at GST-tagged MDM2, the inhibition at 1 µM came to 56%. At HDAC1, the inhibition at 1 µM came to 47%.
The molecule `O=C(CCCCC(=O)N1CCC(C(=O)Nc2ccc([C@@H]3[C@H]4CSCN4[C@]4(C(=O)Nc5cc(Cl)ccc54)[C@H]3C(=O)c3ccccc3)cc2)CC1)NO` [11a, N-(4-((3R,6'S,7'R,7a'S)-6'-benzoyl-6-chloro-2-oxo-1',6',7',7a'-tetrahydro-3'H-spiro[indoline-3,5'-pyrrolo[1,2-c]thiazol]-7'-yl)phenyl)-1-(6-(hydroxyamino)-6-oxohexanoyl)piperidine-4-carboxamide] yielded a melting point of 170.3 to 171.5 °C. The IC50 in the data set with A431 cells (setting [1]) was 4.62 ± 0.78 µM. Also, in the data set on HCT116 cells (setting [2]), the IC50 was found to be 4.32 ± 0.9 µM. At GST-tagged MDM2, this molecule displayed an inhibition at 1 µM of 62%. Besides, on HDAC1, the inhibition at 1 µM was found to be 70%. Also, the half-inhibitory concentration (IC50) with MCF-7 cells (setting [3]) is 4.48 ± 1.46 µM.
For the molecule `CN1C[C@@H](c2ccc(NC(=O)CCCCCCC(=O)NO)cc2)[C@H](C(=O)c2ccccc2)[C@@]12C(=O)Nc1cc(Cl)ccc12` [13a, N^1-(4-((3R,3'S,4'R)-3'-benzoyl-6-chloro-1'-methyl-2-oxospiro[indoline-3,2'-pyrrolidin]-4'-yl)phenyl)-N^8-hydroxyoctanediamide], the melting point was in the range of 126.7 to 127.9 °C. The inhibition at 1 µM against GST-tagged MDM2 is 52%. Further, the inhibition at 1 µM on HDAC1 is 65%.
In turn, `O=C(CCCCCCC(=O)Nc1ccc([C@@H]2[C@@H](c3ccccc3)N[C@]3(C(=O)Nc4cc(Cl)ccc43)[C@H]2C(=O)c2ccccc2)cc1)NO` [15a, N^1-(4-((3R,3'S,4'R,5'S)-3'-benzoyl-6-chloro-2-oxo-5'-phenylspiro[indoline-3,2'-pyrrolidin]-4'-yl)phenyl)-N^8-hydroxyoctanediamide] displayed a melting point of 146.5 to 147.6 °C. In the data set with A431 cells (setting [1]), the IC50 came out at 6.99 ± 0.92 µM. In addition, the IC50 in the data set with HCT116 cells (setting [2]) worked out at 8.45 ± 2.44 µM. On GST-tagged MDM2, this molecule registered an inhibition at 1 µM of 67%. For the same molecule, the inhibition at 1 µM on HDAC1 was found to be 61%. Moreover, the IC50 in the data set with MCF-7 cells (setting [3]) is 5.71 ± 1.03 µM.
As for `O=C(CCCCCCC(=O)Nc1ccc([C@@H]2[C@H]3CSCN3[C@]3(C(=O)Nc4cc(Cl)ccc43)[C@H]2C(=O)c2ccccc2)cc1)NO` [compound 7f, N^1-(4-((3R,6'S,7'R,7a'S)-6'-benzoyl-6-chloro-2-oxo-1',6',7',7a'-tetrahydro-3'H-spiro[indoline-3,5'-pyrrolo[1,2-c]thiazol]-7'-yl)phenyl)-N^8-hydroxyoctanediamide], the melting point lay within 150.2 to 151.2 °C. Besides, at GST-tagged MDM2, the inhibition at 1 µM is 65%. Besides, the inhibition at 1 µM at HDAC1 is 64%.
On to “N^1-(4-((3R,6'S,7'R,7a'S)-6-chloro-6'-(3-methoxybenzoyl)-2-oxo-1',6',7',7a'-tetrahydro-3'H-spiro[indoline-3,5'-pyrrolo[1,2-c]thiazol]-7'-yl)phenyl)-N^6-hydroxyadipamide [7w]”, for which the IC50 in the data set on A431 cells (setting [4]) came to 3.32 ± 0.68 µM; with HCT116 cells (setting [5]) it was 3.91 ± 0.84 µM; in the data set with MCF-7 cells (setting [6]), 3.77 ± 0.93 µM. Besides, the “% enzyme inhibition MDM2” value at GST-tagged MDM2 came to 60%. For the same molecule, the “% enzyme inhibition HDAC” value at HDAC1 stood at 69%.
Regarding “N^1-(4-((3R,6'S,7'R,7a'S)-6-chloro-6'-(4-fluorobenzoyl)-2-oxo-1',6',7',7a'-tetrahydro-3'H-spiro[indoline-3,5'-pyrrolo[1,2-c]thiazol]-7'-yl)phenyl)-N^6-hydroxyadipamide [7x]”, the IC50 with A431 cells (setting [4]) is 3.43 ± 0.73 µM; in the data set with HCT116 cells (setting [5]) it was 3.45 ± 0.57 µM; with MCF-7 cells (setting [6]) it was 2.9 ± 0.56 µM. Further, at GST-tagged MDM2, the “% enzyme inhibition MDM2” value stood at 62%. The “% enzyme inhibition HDAC” value on HDAC1 was 73%.

Usually melting point stands for the temperature, or range, at which the solid turns liquid. Broadly, the inhibition is the relative decrease from the control value, in per cent. What is called IC50 is the midpoint of a concentration-inhibition curve.
